From ChEMBL document CHEMBL4152326 (2018)

Columns and labels:
Assay type in all cases: functional
Pseudomonas aeruginosa [1] = assay: Antimicrobial activity against VIM-2 producing Pseudomonas aeruginosa SBRKM-28 in presence of human apo-transferrin by broth microdilution method
[2] = test system: Stenotrophomonas maltophilia; assay: Antimicrobial activity against L-1 producing Stenotrophomonas maltophilia SR21970 in presence of human apo-transferrin by broth microdilution method
Pseudomonas aeruginosa [3] = assay: Antimicrobial activity against Pseudomonas aeruginosa SR24 in presence of human apo-transferrin by broth microdilution method
Pseudomonas aeruginosa [4] = assay: Antimicrobial activity against IMP-1 producing Pseudomonas aeruginosa SR27001 in presence of human apo-transferrin by broth microdilution method
Pseudomonas aeruginosa [5] = assay: Antimicrobial activity against IMP-1 producing Pseudomonas aeruginosa SR27060 in presence of human apo-transferrin by broth microdilution method
Pseudomonas aeruginosa [6] = assay: Antimicrobial activity against Pseudomonas aeruginosa 27060deltaR1 harboring deletion of R1 plasmid in presence of human apo-transferrin by broth microdilution method
Pseudomonas aeruginosa [7] = assay: Antimicrobial activity against AmpC overproducing Pseudomonas aeruginosa SR24-12 in presence of human apo-transferrin by broth microdilution method
Acinetobacter baumannii = assay: Antimicrobial activity against OXA-23/OXA-58 producing Acinetobacter baumannii SR27323 in presence of human apo-transferrin by broth microdilution method
Escherichia coli = assay: Antimicrobial activity against SHV-4 producing Escherichia coli ATCC BAA-200 in presence of human apo-transferrin by broth microdilution method
Klebsiella pneumoniae = assay: Antimicrobial activity against KPC-2 producing Klebsiella pneumoniae ATCC BAA-1705 in presence of human apo-transferrin by broth microdilution method

Structure (SMILES)	MIC (Pseudomonas aeruginosa [1])	MIC [2]	MIC (Pseudomonas aeruginosa [3])	MIC (Pseudomonas aeruginosa [4])	MIC (Pseudomonas aeruginosa [5])	MIC (Pseudomonas aeruginosa [6])	MIC (Pseudomonas aeruginosa [7])	MIC (Acinetobacter baumannii)	MIC (Escherichia coli)	MIC (Klebsiella pneumoniae)
CC(C)(O/N=C(\C(=O)N[C@@H]1C(=O)N2C(C(=O)[O-])=C(C[N+]3(CCNC(=O)Nc4ccc(O)c(O)c4Cl)CCCC3)CS[C@H]12)c1csc(N)n1)C(=O)O	0.5 µg/mL	4 µg/mL	1 µg/mL	4 µg/mL	8 µg/mL	2 µg/mL	1 µg/mL			
CC(C)(O/N=C(\C(=O)N[C@@H]1C(=O)N2C(C(=O)[O-])=C(C[N+]3(C)C[C@H]4C[C@@H]3CN4C(=O)c3ccc(O)c(O)c3Cl)CS[C@H]12)c1csc(N)n1)C(=O)O (stereo not given in full)	0.25 µg/mL	0.5 µg/mL	0.25 µg/mL	2 µg/mL	4 µg/mL	2 µg/mL	0.5 µg/mL			
CC(C)(O/N=C(\C(=O)N[C@@H]1C(=O)N2C(C(=O)[O-])=C(C[N+]3(CCCNC(=O)c4ccc(O)c(O)c4Cl)CCCC3)CS[C@H]12)c1csc(N)n1)C(=O)O	0.125 µg/mL	0.125 µg/mL	0.5 µg/mL	1 µg/mL	1 µg/mL	0.25 µg/mL	0.5 µg/mL			
C[N+]1(CC2=C(C(=O)[O-])N3C(=O)[C@@H](NC(=O)/C(=N\OC[C@H](NC(=O)c4ccc(O)c(O)c4Cl)C(=O)O)c4csc(N)n4)[C@H]3SC2)CCCC1	0.125 µg/mL	8 µg/mL	0.125 µg/mL	4 µg/mL	4 µg/mL	2 µg/mL	1 µg/mL			
CC(C)(O/N=C(\C(=O)N[C@@H]1C(=O)N2C(C(=O)[O-])=C(C[N+]34CCC(CC3)N(C(=O)c3ccc(O)c(O)c3Cl)CC4)CS[C@H]12)c1csc(N)n1)C(=O)O	0.125 µg/mL	0.125 µg/mL	0.25 µg/mL	1 µg/mL	4 µg/mL	1 µg/mL	0.25 µg/mL			
NCC[N+]1(CC2=C(C(=O)[O-])N3C(=O)[C@@H](NC(=O)/C(=N\O[C@@H](CNC(=O)c4ccc(O)c(O)c4Cl)C(=O)O)c4csc(N)n4)[C@H]3SC2)CCCC1		16 µg/mL	0.125 µg/mL	0.5 µg/mL	0.125 µg/mL	0.063 µg/mL	0.063 µg/mL	0.5 µg/mL	8 µg/mL	0.125 µg/mL
CC(C)(O/N=C(\C(=O)N[C@@H]1C(=O)N2C(C(=O)[O-])=C(C[N+]3(CCNC(=O)c4ccc(O)c(O)c4Cl)CCCC3)CS[C@H]12)c1nc(N)sc1Cl)C(=O)O	0.125 µg/mL	2 µg/mL	0.25 µg/mL	1 µg/mL	1 µg/mL	1 µg/mL	0.5 µg/mL	2 µg/mL	1 µg/mL	0.063 µg/mL
CC(C)(O/N=C(\C(=O)N[C@@H]1C(=O)N2C(C(=O)[O-])=C(C[n+]3cccc4c3CCCN4C(=O)c3ccc(O)c(O)c3Cl)CS[C@H]12)c1csc(N)n1)C(=O)O	0.125 µg/mL	0.5 µg/mL		4 µg/mL	4 µg/mL					
Nc1nc(/C(=N/O[C@@H](CC(=O)O)C(=O)O)C(=O)N[C@@H]2C(=O)N3C(C(=O)[O-])=C(C[N+]4(CCNC(=O)c5ccc(O)c(O)c5Cl)CCCC4)CS[C@H]23)cs1	0.063 µg/mL	0.25 µg/mL	0.25 µg/mL	1 µg/mL	1 µg/mL	0.5 µg/mL	0.25 µg/mL	1 µg/mL	1 µg/mL	0.063 µg/mL
CO/N=C(\C(=O)N[C@@H]1C(=O)N2C(C(=O)[O-])=C(C[N+]3(CCNC(=O)c4ccc(O)c(O)c4Cl)CCCC3)CS[C@H]12)c1csc(N)n1	0.5 µg/mL	2 µg/mL		4 µg/mL	32 µg/mL					
CC(C)(O/N=C(\C(=O)N[C@@H]1C(=O)N2C(C(=O)[O-])=C(C[N+]3(CCNC(=O)c4ccc(=O)n(O)c4)CCCC3)CS[C@H]12)c1csc(N)n1)C(=O)O		4 µg/mL	2 µg/mL	16 µg/mL	8 µg/mL	4 µg/mL	2 µg/mL	32 µg/mL	8 µg/mL	2 µg/mL
C[C@@H](C[N+]1(CC2=C(C(=O)[O-])N3C(=O)[C@@H](NC(=O)/C(=N\OC(C)(C)C(=O)O)c4csc(N)n4)[C@H]3SC2)CCCC1)NC(=O)c1ccc(O)c(O)c1Cl	0.125 µg/mL	0.25 µg/mL	0.25 µg/mL	1 µg/mL	2 µg/mL	0.25 µg/mL	0.25 µg/mL			
CC(C)(O/N=C(\C(=O)N[C@@H]1C(=O)N2C(C(=O)[O-])=C(C[N+]3(CCNC(=O)c4ccc(O)c(O)c4Cl)CCCC3)CS[C@H]12)c1nsc(N)n1)C(=O)O	0.25 µg/mL	0.25 µg/mL	0.25 µg/mL	1 µg/mL	1 µg/mL	0.25 µg/mL	0.25 µg/mL			
COc1c(C(=O)NCC[N+]2(CC3=C(C(=O)[O-])N4C(=O)[C@@H](NC(=O)/C(=N\OC(C)(C)C(=O)O)c5csc(N)n5)[C@H]4SC3)CCCC2)ccc(O)c1O		2 µg/mL	0.125 µg/mL	4 µg/mL	4 µg/mL	2 µg/mL	0.125 µg/mL	1 µg/mL	8 µg/mL	0.25 µg/mL
CC(C)(O/N=C(\C(=O)N[C@@H]1C(=O)N2C(C(=O)[O-])=C(C[n+]3ccc(-c4ccc(O)c(O)c4Cl)cc3)CS[C@H]12)c1csc(N)n1)C(=O)O (stereo in doubt)	0.25 µg/mL	1 µg/mL		> 64 µg/mL	16 µg/mL					
CC(C)(O/N=C(\C(=O)N[C@@H]1C(=O)N2C(C(=O)[O-])=C(C[N@@+]3(C)C[C@H]4CN(C(=O)c5ccc(O)c(O)c5Cl)C[C@H]4C3)CS[C@H]12)c1csc(N)n1)C(=O)O	0.125 µg/mL	0.5 µg/mL	0.25 µg/mL	4 µg/mL	4 µg/mL	0.5 µg/mL	0.25 µg/mL			
CC(C)(O/N=C(\C(=O)N[C@@H]1C(=O)N2C(C(=O)[O-])=C(C[N+]3(CCN)CCCC3)CS[C@H]12)c1csc(N)n1)C(=O)O		> 32 µg/mL	2 µg/mL	32 µg/mL	16 µg/mL	4 µg/mL	8 µg/mL	8 µg/mL	16 µg/mL	8 µg/mL
NCC[N+]1(CC2=C(C(=O)[O-])N3C(=O)[C@@H](NC(=O)/C(=N\OC[C@H](NC(=O)c4ccc(O)c(O)c4Cl)C(=O)O)c4csc(N)n4)[C@H]3SC2)CCCC1		> 32 µg/mL	0.125 µg/mL	0.25 µg/mL	0.125 µg/mL	0.063 µg/mL	0.25 µg/mL	4 µg/mL	> 32 µg/mL	0.25 µg/mL
CC(C)(O/N=C(\C(=O)N[C@@H]1C(=O)N2C(C(=O)[O-])=C(C[N+]3(CCNC(=O)c4[nH]cc(O)c(=O)c4Cl)CCCC3)CS[C@H]12)c1csc(N)n1)C(=O)O	4 µg/mL	4 µg/mL	2 µg/mL		> 32 µg/mL	8 µg/mL	24 µg/mL	32 µg/mL	16 µg/mL	2 µg/mL
CC(C)(O/N=C(\C(=O)N[C@@H]1C(=O)N2C(C(=O)[O-])=C(C[N+]3(C)CCN(C(=O)c4ccc(O)c(O)c4Cl)CC3)CS[C@H]12)c1csc(N)n1)C(=O)O		1 µg/mL	0.125 µg/mL	4 µg/mL	8 µg/mL	0.25 µg/mL	0.125 µg/mL	1 µg/mL	32 µg/mL	0.125 µg/mL
COc1c(O)ccc(C(=O)NCC[N+]2(CC3=C(C(=O)[O-])N4C(=O)[C@@H](NC(=O)/C(=N\OC(C)(C)C(=O)O)c5csc(N)n5)[C@H]4SC3)CCCC2)c1Cl	16 µg/mL	28 µg/mL	2 µg/mL	32 µg/mL			8 µg/mL	> 32 µg/mL	16 µg/mL	4 µg/mL
CN(CC[N+]1(CC2=C(C(=O)[O-])N3C(=O)[C@@H](NC(=O)/C(=N\OC(C)(C)C(=O)O)c4csc(N)n4)[C@H]3SC2)CCCC1)C(=O)c1ccc(O)c(O)c1Cl	0.125 µg/mL	0.25 µg/mL	0.5 µg/mL	1 µg/mL	1 µg/mL	0.5 µg/mL	0.5 µg/mL			
C[N+]1(CC2=C(C(=O)[O-])N3C(=O)[C@@H](NC(=O)/C(=N\O[C@@H](CNC(=O)c4ccc(O)c(O)c4Cl)C(=O)O)c4csc(N)n4)[C@H]3SC2)CCCC1		16 µg/mL	0.125 µg/mL	8 µg/mL	4 µg/mL	0.5 µg/mL	0.5 µg/mL	1 µg/mL	> 32 µg/mL	0.25 µg/mL
CC(C)(O/N=C(\C(=O)N[C@@H]1C(=O)N2C(C(=O)[O-])=C(C[N+]3(Cc4nnc(-c5ccc(O)c(O)c5Cl)o4)CCCC3)CS[C@H]12)c1csc(N)n1)C(=O)O	0.125 µg/mL	0.5 µg/mL	0.5 µg/mL	2 µg/mL	2 µg/mL	0.5 µg/mL	0.5 µg/mL			
CC(C)(O/N=C(\C(=O)N[C@@H]1C(=O)N2C(C(=O)[O-])=C(C[n+]3cc4cc(NC(=O)c5ccc(O)c(O)c5Cl)ccn4c3)CS[C@H]12)c1csc(N)n1)C(=O)O		> 32 µg/mL	0.25 µg/mL	> 32 µg/mL	> 32 µg/mL	4 µg/mL	2 µg/mL	0.5 µg/mL	4 µg/mL	0.25 µg/mL
C[C@@H](O)[C@H]1C(=O)N2C(C(=O)O)=C(S[C@@H]3CN[C@H](C(=O)N(C)C)C3)[C@H](C)[C@H]12 [MEROPENEM]		> 64 µg/mL	≤ 0.063 µg/mL				0.125 µg/mL		≤ 0.063 µg/mL	
